Data taken from ChEMBL document CHEMBL1201862, “PubChem BioAssay data set” (2004).
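Assay format: 96-well plates, 48-hour exposure. At the GI50, growth is halved.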 Calls of active or inactive are those of the source. No stated cut-off is given here; in the data, active = GI50 up to about 1.1 µM and inactive = higher.

How the values were obtained:
Assay in all cases: NCI anticancer screen, dose series, 48 h
CCRF-CEM = tested on: CCRF-CEM
HL-60 = tested on: HL-60
IGROV-1 = tested on: IGROV-1
K562 = tested on: K562
KM12 = tested on: KM12
MCF7 = tested on: MCF7
MDA-MB-231 = tested on: MDA-MB-231
NCI-H23 = tested on: NCI-H23
RXF 393 = tested on: RXF 393
SF-295 = tested on: SF-295
SK-MEL-28 = tested on: SK-MEL-28
SK-MEL-2 = tested on: SK-MEL-2
SK-MEL-5 = tested on: SK-MEL-5
SK-OV-3 = tested on: SK-OV-3
SN12C = tested on: SN12C
SW-620 = tested on: SW-620
T47D = tested on: T47D
TK-10 = tested on: TK-10
U-251 = tested on: U-251
UACC-62 = tested on: UACC-62

Structure (SMILES)	GI50 (CCRF-CEM)	GI50 (HL-60)	GI50 (IGROV-1)	GI50 (K562)	GI50 (KM12)	GI50 (MCF7)	GI50 (MDA-MB-231)	GI50 (NCI-H23)	GI50 (RXF 393)	GI50 (SF-295)	GI50 (SK-MEL-28)	GI50 (SK-MEL-2)	GI50 (SK-MEL-5)	GI50 (SK-OV-3)	GI50 (SN12C)	GI50 (SW-620)	GI50 (T47D)	GI50 (TK-10)	GI50 (U-251)	GI50 (UACC-62)
CC(=O)O[C@@]12[C@@H]3O[C@@]4(O)C[C@]5(C)[C@H]6C[C@@](C(C)C)(O[C@H]5c5ccoc5)O[C@H]1[C@]6(C4)O[C@]2(O)C(C)=CC3(C)C	> 100 µM (inactive)	> 100 µM (inactive)	> 100 µM (inactive)	> 100 µM (inactive)	> 100 µM (inactive)	> 100 µM (inactive)	> 100 µM (inactive)	> 100 µM (inactive)	> 100 µM (inactive)	> 100 µM (inactive)	> 100 µM (inactive)	> 100 µM (inactive)	> 100 µM (inactive)	> 100 µM (inactive)	> 100 µM (inactive)	> 100 µM (inactive)	> 100 µM (inactive)	> 100 µM (inactive)	> 100 µM (inactive)	> 100 µM (inactive)
O=S1(=O)c2ccccc2C(Nc2ccccc2)N1c1ccccc1 (stereo not given)	63.4 µM (inactive)	85.7 µM (inactive)	36.9 µM (inactive)	27.6 µM (inactive)	72.3 µM (inactive)	> 100 µM (inactive)	> 100 µM (inactive)	> 100 µM (inactive)	> 100 µM (inactive)	> 100 µM (inactive)	> 100 µM (inactive)	98.6 µM (inactive)	> 100 µM (inactive)	> 100 µM (inactive)	> 100 µM (inactive)	> 100 µM (inactive)	24.5 µM (inactive)	> 100 µM (inactive)	61 µM (inactive)	> 100 µM (inactive)
Cn1c(=S)sc2nc3ccccc3n2c1=S	3.52 µM (inactive)	2.49 µM (inactive)	12.8 µM (inactive)	2 µM (inactive)	10.2 µM (inactive)	2.26 µM (inactive)	19.3 µM (inactive)	12.4 µM (inactive)	10.9 µM (inactive)	18.8 µM (inactive)	12.4 µM (inactive)	51.1 µM (inactive)	12.2 µM (inactive)	10.4 µM (inactive)	10.6 µM (inactive)	12 µM (inactive)	9.84 µM (inactive)	21.2 µM (inactive)	11.5 µM (inactive)	11.4 µM (inactive)
NN=C(CC(O)(C(F)(F)Cl)C(F)(F)Cl)CC(O)(C(F)(F)Cl)C(F)(F)Cl	> 10 µM (inactive)	> 10 µM (inactive)	> 10 µM (inactive)	> 10 µM (inactive)	> 10 µM (inactive)	> 10 µM (inactive)	> 10 µM (inactive)	> 10 µM (inactive)	> 10 µM (inactive)	> 10 µM (inactive)	> 10 µM (inactive)	> 10 µM (inactive)	> 10 µM (inactive)	> 10 µM (inactive)	> 10 µM (inactive)	> 10 µM (inactive)	> 10 µM (inactive)	> 10 µM (inactive)	> 10 µM (inactive)	> 10 µM (inactive)
Cn1c(=O)c2c(nc3n(CC(O)CCl)c(=O)ccn23)n(C)c1=O (stereo not given)	5.19 µM (inactive)	15.5 µM (inactive)	20.8 µM (inactive)	39.2 µM (inactive)	19.9 µM (inactive)	40.4 µM (inactive)	31.3 µM (inactive)	42.7 µM (inactive)	> 100 µM (inactive)	47.5 µM (inactive)	66.7 µM (inactive)	> 100 µM (inactive)	62.5 µM (inactive)	45.1 µM (inactive)	18.3 µM (inactive)	46.8 µM (inactive)	35.7 µM (inactive)	89.3 µM (inactive)	44 µM (inactive)	36.5 µM (inactive)
O=P(O)(O)OC1O[C@H](CO)[C@H](O)[C@H](O)[C@H]1O (stereo not given in full)	> 100 µM (inactive)	> 100 µM (inactive)	> 100 µM (inactive)	> 100 µM (inactive)	> 100 µM (inactive)	> 100 µM (inactive)	> 100 µM (inactive)	> 100 µM (inactive)	> 100 µM (inactive)	> 100 µM (inactive)	> 100 µM (inactive)	> 100 µM (inactive)	> 100 µM (inactive)	> 100 µM (inactive)	> 100 µM (inactive)	> 100 µM (inactive)	> 100 µM (inactive)	> 100 µM (inactive)	> 100 µM (inactive)	> 100 µM (inactive)
COc1ccc(-c2cc(-c3ccc(Nc4ccnc5cc(C(F)(F)F)ccc45)cc3)[nH]c(=O)c2C#N)c2ccccc12	> 20.9 µM (inactive)	> 100 µM (inactive)	> 100 µM (inactive)	> 100 µM (inactive)	> 30.4 µM (inactive)	> 29.5 µM (inactive)	17.7 µM (inactive)	39.5 µM (inactive)	15.2 µM (inactive)	25.8 µM (inactive)	> 59.7 µM (inactive)	> 56 µM (inactive)	> 100 µM (inactive)	10.2 µM (inactive)	> 100 µM (inactive)	> 100 µM (inactive)	> 34 µM (inactive)	26.9 µM (inactive)	10.2 µM (inactive)	88.5 µM (inactive)
OCC1OC(n2cnc3c(/C=C(/O)c4ccccc4)ncnc32)C(O)C1O (stereo not given)	0.61 µM (active)	0.165 µM (active)	0.927 µM (active)	2.83 µM (inactive)	4.62 µM (inactive)	3.8 µM (inactive)	1.64 µM (inactive)	2.82 µM (inactive)	4.12 µM (inactive)	5.13 µM (inactive)	41.8 µM (inactive)	1.01 µM (active)	5.65 µM (inactive)	0.428 µM (active)	3.19 µM (inactive)	0.875 µM (active)	3.03 µM (inactive)	0.516 µM (active)	10.9 µM (inactive)	8.3 µM (inactive)
Cc1ccc(S(=O)(=O)NC(=O)NC(CC(N)=O)C(=O)O)cc1 (stereo not given)	> 100 µM (inactive)	> 100 µM (inactive)	> 100 µM (inactive)	> 100 µM (inactive)	> 100 µM (inactive)	> 100 µM (inactive)	> 100 µM (inactive)	> 100 µM (inactive)	> 100 µM (inactive)	> 100 µM (inactive)	> 100 µM (inactive)	> 100 µM (inactive)	> 100 µM (inactive)	> 100 µM (inactive)	> 100 µM (inactive)	> 100 µM (inactive)	> 100 µM (inactive)	> 100 µM (inactive)	> 100 µM (inactive)	> 100 µM (inactive)
CC1(C)C(=O)/C(=C/c2ccccc2)C(C)(C)C1(C)C	28.4 µM (inactive)	18.9 µM (inactive)	60.1 µM (inactive)	35.2 µM (inactive)	49.9 µM (inactive)	35.2 µM (inactive)	> 93.8 µM (inactive)	70.6 µM (inactive)	> 100 µM (inactive)	> 100 µM (inactive)	> 100 µM (inactive)	> 43.5 µM (inactive)	55 µM (inactive)	> 55.5 µM (inactive)	50.8 µM (inactive)	60.3 µM (inactive)	> 65.3 µM (inactive)	46.6 µM (inactive)	55.5 µM (inactive)	54.1 µM (inactive)
O=C(O)/C(Cc1ccc([N+](=O)[O-])cc1)=N\O	73.6 µM (inactive)	61.9 µM (inactive)	69.8 µM (inactive)	> 100 µM (inactive)	> 100 µM (inactive)	> 100 µM (inactive)	> 100 µM (inactive)	> 100 µM (inactive)	> 100 µM (inactive)	> 100 µM (inactive)	> 100 µM (inactive)	> 100 µM (inactive)	> 100 µM (inactive)	> 100 µM (inactive)	> 100 µM (inactive)	> 100 µM (inactive)	94.6 µM (inactive)	> 100 µM (inactive)	> 100 µM (inactive)	> 100 µM (inactive)
CN(Cc1cnc2nc(N)nc(N)c2n1)c1ccc(C(=O)NC(CO)CCCO)cc1 (stereo not given)	> 100 µM (inactive)	> 100 µM (inactive)	> 100 µM (inactive)	> 100 µM (inactive)	> 100 µM (inactive)	> 100 µM (inactive)	> 100 µM (inactive)	> 100 µM (inactive)	> 100 µM (inactive)	> 100 µM (inactive)	> 100 µM (inactive)	> 100 µM (inactive)	> 100 µM (inactive)	> 100 µM (inactive)	> 100 µM (inactive)	> 100 µM (inactive)	> 100 µM (inactive)	> 100 µM (inactive)	> 100 µM (inactive)	> 100 µM (inactive)
CN(C)/C=N/S(=O)(=O)c1nn2c(C=O)c(-c3ccc(-c4ccc([N+](=O)[O-])cc4)o3)nc2s1	0.426 µM (active)	0.807 µM (active)	1.72 µM (inactive)	1.1 µM (active)	5.64 µM (inactive)	2.13 µM (inactive)	2.65 µM (inactive)	3.1 µM (inactive)	1.91 µM (inactive)	7.08 µM (inactive)	2.4 µM (inactive)	7.28 µM (inactive)	4.76 µM (inactive)	36.1 µM (inactive)	1.71 µM (inactive)	0.933 µM (active)	5.52 µM (inactive)	3.39 µM (inactive)	2.25 µM (inactive)	3.68 µM (inactive)
